Laboratory results taken from paper PMC7930564, “First Case of Glyphosate Resistance in Bromus catharticus Vahl.: Examination of Endowing Resistance Mechanisms” (Frontiers in Plant Science, 2021).

Test system: T1, EPSPS (5-enolpyruvylshikimate-3-phosphate synthase), glyphosate-resistant (R) population
T1 construct: native enzyme in leaf extract (total soluble protein) of R plants, not recombinant; no target-site substitution at codons 101, 102, 103, 106, 144, 192; homoeologous copies not resolved
Assay: phosphate release, EnzChek Phosphate Assay Kit, […] nm, leaf extract
Type: biochemical, Bromus catharticus
Details: substrates phosphoenolpyruvate and shikimate-3-phosphate; glyphosate 0 to 5,000 μM; Figure 6 legend fit prints 0.16; read-out: I50

Structure (SMILES): O=C(O)CNCP(=O)(O)O [glyphosate, N-phosphonomethyl glycine]
- IC50: 150 nM
